Experimental data: patent publication EP4664463A1, “COMPUTER-IMPLEMENTED METHOD FOR OLFACTORY PROPERTY PREDICTION” (Givaudan SA, priority 2024, dated 2025)
Blank lines part the entries; values can stand above or below the molecule they belong to.

What was measured:
[1] = target: T1, OR identified in the library screening (receptor named per line) (Homo sapiens, UniProt Q8NGX5); experiment: Confirmatory dose-response of library hits, wild-type OR vs OR with C-terminus SEQ ID NO: 221 (Table 17); format: cell-based; conditions: receptor OR10K1, wild-type sequence; read-out: Potency EC50 wild-type (converted)
T1 construct: expressed in transfected cells; host or cells: HEK293T stably expressing human RTP1S(V227I) and RTP2(L220R) (general method)
Procedure: (§2) Selected ligand - OR pairs were then tested in a confirmatory test with a dose response analysis.
(§3) Dose-response analysis with the cognate ligand was then performed for both the wild-type and the modified sequence.

OR52A5 [2] = target: T2, OR52A5 (Homo sapiens, UniProt Q9H2C5); experiment: cell-based; format: cell-based
T2 construct: expressed in transfected cells; host or cells: HEK293T cells stably expressing human RTP1S (V227I) and RTP2 (L220R)
Source text: (§1) To create an expression plasmid, an OR coding sequence fused at the end of TM7 to the desired C-terminus sequence was synthesized by a DNA synthesis service provider (BioCat GmbH, Germany) and inserted into pcDNA3.1(+) (Invitrogen, MA, USA) downstream of the CMV promoter sequence (SEQ ID NO: 82) using BamHI and Notl restriction sites. All the synthetic OR nucleotide sequences described below in Examples 1-15 further contained at their N-terminus a nucleotide sequence encoding a signal peptide (mmLucy-FLAG-rho, SeQ ID NOs: 80, 81) and at the C-terminus the bgh terminator sequence (SEQ ID NO: 83). All the OR expression plasmids also contain a Kozak sequence (GCCACC) between the BamHI restriction site and the start codon of the signal peptide. These plasmids thus contain a constitutively expressed OR gene.
T2 sequence (Q9H2C5 whole entry): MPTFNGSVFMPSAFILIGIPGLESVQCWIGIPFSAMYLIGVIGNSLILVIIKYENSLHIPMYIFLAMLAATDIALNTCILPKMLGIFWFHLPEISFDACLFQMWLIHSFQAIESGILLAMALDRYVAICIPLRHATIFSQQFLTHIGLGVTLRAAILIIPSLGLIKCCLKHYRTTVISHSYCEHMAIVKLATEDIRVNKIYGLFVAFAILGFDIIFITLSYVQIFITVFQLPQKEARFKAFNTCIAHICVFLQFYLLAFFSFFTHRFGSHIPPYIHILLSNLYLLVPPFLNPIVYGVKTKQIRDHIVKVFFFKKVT

OR52A5 [3] = target: T3, OR52A5 (Homo sapiens, UniProt Q9H2C5); experiment: cell-based; format: cell-based; remark: listed apart in the source
T3 construct: expressed in transfected cells; host or cells: HEK293T cells stably expressing human RTP1S (V227I) and RTP2 (L220R)
Source text: as §1
T3 sequence (Q9H2C5 with tags, fused parts or gaps): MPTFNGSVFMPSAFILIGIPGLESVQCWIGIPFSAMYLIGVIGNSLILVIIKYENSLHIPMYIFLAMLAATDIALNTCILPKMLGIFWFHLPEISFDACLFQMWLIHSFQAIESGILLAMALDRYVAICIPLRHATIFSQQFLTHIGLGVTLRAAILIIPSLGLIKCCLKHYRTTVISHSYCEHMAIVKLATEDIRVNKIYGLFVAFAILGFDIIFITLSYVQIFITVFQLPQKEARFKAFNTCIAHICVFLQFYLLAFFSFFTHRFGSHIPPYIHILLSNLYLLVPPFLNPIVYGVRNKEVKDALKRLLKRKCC

OR52A5 [4] = experiment: cell-based; format: cell-based, human
Source text: as §1

[5] = target: T4, OR identified in the library screening (receptor named per line) (Homo sapiens, UniProt Q8NGG4); experiment: Confirmatory dose-response of library hits, wild-type OR vs OR with C-terminus SEQ ID NO: 221 (Table 17); format: cell-based; conditions: receptor OR8H1, wild-type sequence; read-out: Potency EC50 wild-type (converted)
T4 construct: expressed in transfected cells; host or cells: HEK293T stably expressing human RTP1S(V227I) and RTP2(L220R) (general method)
Procedure: as §2, §3

OR5A2 [6] = target: T5, OR5A2 (Homo sapiens, UniProt Q8NGI9); experiment: Luciferase dose-response, wild-type vs changed C-terminus (SEQ ID NO: 86); format: cell-based; conditions: wild-type OR5A2
T5 construct: expressed in transfected cells; host or cells: HEK293T cells with stably integrated human RTP1S (V227I) and RTP2 (L220R)
T5 sequence (Q8NGI9 1-324): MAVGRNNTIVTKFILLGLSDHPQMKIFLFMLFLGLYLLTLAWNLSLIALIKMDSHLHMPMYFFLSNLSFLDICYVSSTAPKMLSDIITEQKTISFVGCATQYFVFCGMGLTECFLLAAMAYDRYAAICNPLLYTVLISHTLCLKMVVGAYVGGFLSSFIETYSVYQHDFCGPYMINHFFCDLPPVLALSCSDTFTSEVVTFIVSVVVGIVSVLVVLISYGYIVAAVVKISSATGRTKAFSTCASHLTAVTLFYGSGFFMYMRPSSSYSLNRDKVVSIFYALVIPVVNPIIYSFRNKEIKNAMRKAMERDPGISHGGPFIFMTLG
Source text: as §1

OR5A2 [7] = target: T6, OR5A2 (Homo sapiens, UniProt Q8NGI9); experiment: as above; format: cell-based; conditions: OR5A2 with SEQ ID NO: 86
T6 construct: expressed in transfected cells; host or cells: HEK293T cells with stably integrated human RTP1S (V227I) and RTP2 (L220R)
T6 sequence (Q8NGI9 with tags, fused parts or gaps): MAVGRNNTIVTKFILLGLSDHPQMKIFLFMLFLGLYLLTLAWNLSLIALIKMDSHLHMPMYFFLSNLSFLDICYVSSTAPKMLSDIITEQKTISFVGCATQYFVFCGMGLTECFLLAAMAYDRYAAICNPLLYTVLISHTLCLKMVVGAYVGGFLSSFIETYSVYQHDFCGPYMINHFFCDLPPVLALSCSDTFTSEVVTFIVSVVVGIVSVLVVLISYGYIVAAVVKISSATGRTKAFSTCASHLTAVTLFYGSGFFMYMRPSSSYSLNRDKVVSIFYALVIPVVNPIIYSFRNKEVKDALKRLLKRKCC
Source text: as §1

OR5A2 [8] = experiment: Dose-dependent luciferase induction by muscone of OR5A2 C-terminal variants; format: cell-based, human; conditions: modified OR5A2
Source text: as §1
Table 11. Dose-dependent induction OR5A2 with two different variants of the C-terminal sequence motif (Shown is fold-induction of luciferase)

[9] = test system: library of all class II OR with modified C-terminal domain RNKEVKKAIKRLFKRKCCRRR (SEQ ID NO: 221); experiment: Screening of the library of all class II OR with single odorants (luciferase); format: cell-based, human; conditions: full class II OR library (n = 408); maximal non-cytotoxic concentration
Procedure: All human class II OR and all key genetic variants of these OR were synthesized with a sequence coding for an identical modified C-terminal domain […] (SEQ ID NO: 221) in the vector pcDNA3.1(+) to generate a library of all class II OR with an improved C-terminal domain. Class II OR library members with modified C-terminal domains
Parallel transfection experiments were conducted with all these plasmids (n = 408) and cells expressing the different OR were stimulated with one given ligand at a time, tested at the maximal, clearly non-cytotoxic concentration. In total 26 different ligands were tested on the full library of class II receptors.

OR5AN1 = target: T7, OR5AN1 (Homo sapiens, UniProt Q8NGI8); experiment: Chimeric OR5AN1 with C-terminal sequence of OR1N2 (luciferase); format: cell-based
T7 construct: expressed in transfected cells; host or cells: HEK293T stably expressing human RTP1S(V227I) and RTP2(L220R)
Source text: Similarly, the C-terminal sequence of OR5AN1 was replaced with the C-terminal sequence of the ambrettolide receptor OR1 N2.

[10] = target: T8, OR identified in the library screening (receptor named per line) (Homo sapiens, UniProt Q8NGC4, S73G); experiment: Confirmatory dose-response of library hits, wild-type OR vs OR with C-terminus SEQ ID NO: 221 (Table 17); format: cell-based; conditions: receptor OR10G3(S73G), wild-type sequence; read-out: Potency EC50 wild-type (converted)
T8 construct: expressed in transfected cells; host or cells: HEK293T stably expressing human RTP1S(V227I) and RTP2(L220R) (general method)
Procedure: as §2, §3

[11] = target: T9, OR identified in the library screening (receptor named per line) (Homo sapiens, UniProt Q8NG80); experiment: as above; format: cell-based; conditions: receptor OR2L5, wild-type sequence; read-out: Potency EC50 wild-type (converted)
T9 construct: expressed in transfected cells; host or cells: HEK293T stably expressing human RTP1S(V227I) and RTP2(L220R) (general method)
Procedure: as §2, §3

[12] = test system: library of all class I OR with C-terminal domain RNKQIRDALKRLLKRKCCRRR (SEQ ID NO: 741); experiment: Screening of the library of all class I OR with carboxylic acid ligands (luciferase); format: cell-based, human; conditions: full class I OR library (n = 77)
Procedure: All human class I OR and all key genetic variants of these OR were synthesized with a sequence coding for the identical C-terminal domain […] (SEQ ID NO: 741) in the vector pcDNA3.1(+) to generate a library of all class I OR with an improved C-terminal domain. Class I OR library members
Parallel transfection experiments were conducted with all these plasmids (n = 77, SEQ ID NO: 760, OR51F1 was excluded due to poor plasmid yield) and cells expressing the different OR were stimulated with one given ligand at a time. In total 10 different carboxylic acids ligands were tested on the full library of class I receptors.

OR2T4 [13] = target: T10, OR2T4 (Homo sapiens, UniProt Q8NH00); experiment: cell-based; format: cell-based
T10 construct: expressed in transfected cells; host or cells: HEK293T cells stably expressing human RTP1S (V227I) and RTP2 (L220R)

OR2T4 [14] = target: T11, OR2T4 (Homo sapiens, UniProt Q8NH00, D328E/G331D/M330K); experiment: cell-based; format: cell-based
T11 construct: expressed in transfected cells; host or cells: HEK293T cells stably expressing human RTP1S (V227I) and RTP2 (L220R)
T11 sequence (Q8NH00 with tags, fused parts or gaps D328E/M330K/G331D): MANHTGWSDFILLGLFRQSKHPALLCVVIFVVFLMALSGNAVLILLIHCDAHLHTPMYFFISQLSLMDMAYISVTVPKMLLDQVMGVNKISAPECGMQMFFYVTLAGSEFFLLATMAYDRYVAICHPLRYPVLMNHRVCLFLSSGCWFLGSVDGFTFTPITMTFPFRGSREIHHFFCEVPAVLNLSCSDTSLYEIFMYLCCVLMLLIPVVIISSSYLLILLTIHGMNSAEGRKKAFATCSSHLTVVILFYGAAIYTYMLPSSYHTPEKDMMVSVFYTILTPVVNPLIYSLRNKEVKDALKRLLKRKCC

OR2T4 [15] = experiment: cell-based; format: cell-based, human
[16] = changed C-term SEQ ID NO: 86, read-out: Potency EC50

T10 sequence (Q8NH00 35-348): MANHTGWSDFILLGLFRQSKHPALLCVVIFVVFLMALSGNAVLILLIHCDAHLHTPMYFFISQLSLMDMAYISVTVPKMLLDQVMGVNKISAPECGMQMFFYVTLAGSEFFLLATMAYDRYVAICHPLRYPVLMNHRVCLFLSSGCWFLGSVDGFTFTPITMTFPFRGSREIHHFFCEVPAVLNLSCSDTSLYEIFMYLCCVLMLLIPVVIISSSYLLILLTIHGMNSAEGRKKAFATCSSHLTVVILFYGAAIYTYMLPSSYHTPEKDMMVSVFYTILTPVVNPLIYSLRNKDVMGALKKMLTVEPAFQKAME
T7 sequence (Q8NGI8 with tags, fused parts or gaps limits assumed): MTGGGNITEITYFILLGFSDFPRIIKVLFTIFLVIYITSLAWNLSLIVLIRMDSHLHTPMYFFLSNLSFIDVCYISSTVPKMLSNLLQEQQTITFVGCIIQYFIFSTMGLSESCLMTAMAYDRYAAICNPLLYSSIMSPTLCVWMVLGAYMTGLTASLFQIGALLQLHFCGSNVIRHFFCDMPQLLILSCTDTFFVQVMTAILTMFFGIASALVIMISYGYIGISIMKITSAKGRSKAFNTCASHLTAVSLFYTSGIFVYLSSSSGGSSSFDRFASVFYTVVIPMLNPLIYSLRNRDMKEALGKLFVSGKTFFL
T8 sequence (Q8NGC4 whole entry S73G): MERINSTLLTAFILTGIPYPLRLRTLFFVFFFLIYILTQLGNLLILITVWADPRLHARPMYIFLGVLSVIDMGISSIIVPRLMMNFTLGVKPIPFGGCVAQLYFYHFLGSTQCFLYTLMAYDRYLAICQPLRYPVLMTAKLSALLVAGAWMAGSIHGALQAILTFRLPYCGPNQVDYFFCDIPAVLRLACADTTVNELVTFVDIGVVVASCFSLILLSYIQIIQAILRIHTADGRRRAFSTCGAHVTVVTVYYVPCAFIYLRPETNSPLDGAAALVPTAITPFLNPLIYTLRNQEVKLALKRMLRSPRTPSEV

EC50 [1]: 6.8 µM
Compound: CC(C)CCc1ccc2c(c1)OCC(=O)CO2 [7-(3-Methylbutyl)-benzo[b][1,4]dioxepin-3-one]

Detection threshold; concentration for 2-fold induction (OR52A5 [2]): >1000 µM | Detection threshold; concentration for 2-fold induction (OR52A5 [3]): 101 µM | EC50 (OR52A5 [3]; [16]): 300 µM
Compound: CCCCC(CC)CCC(=O)O (centres unmarked) [4-ethyloctanoic acid]
Comments on efficacy (OR52A5 [4]): 2.5-fold lower maximal induction for wild-type | Fold-improvement threshold (OR52A5 [4]): >10

EC50 [5]: 17.3 µM
Compound: N#CC(=C1CCCCC1)c1ccccc1 [Peonile]

activation of the wild-type receptor (OR5A2 [6]): No activation | concentration at which activation occurs (OR5A2 [7]): 1 µM | functional response (OR5AN1): not showing any functional response
Compound: C[C@@H]1CCCCCCCCCCCCC(=O)C1 [Muscone]
concentration at which induction starts (OR5A2 [8]): 0.03 µM | Activated OR and OR variants [9]: OR5AN1, OR5A2

Compound: COc1cc(C=O)ccc1O [Vanillin]
EC50 [10]: 261 µM

EC50 [11]: 115 µM
Compound: CCOC(=O)C1CCCCC1 [Ethyl cyclohexanecarboxylate (Esterly), Ethyl cyclohexanecarboxylate]

Activated OR and OR variants [12]: No activation observed
Compound: CCC=C(C)C(=O)O [2-Methyl-2-pentenoic acid]

Compound: SC1CCCC1 [Cyclopentanethiol]
Detection threshold; concentration for 2-fold induction (OR2T4 [13]): n.i. (>> 316) µM | EC50 (OR2T4 [13]; wild-type, read-out: Potency EC50): > 316 µM | Detection threshold; concentration for 2-fold induction (OR2T4 [14]): 3.89 µM | ligands identified in screening of sulfur odorants (OR2T4 [14]; OR2T4 with SEQ ID NO: 86): good ligands | EC50 (OR2T4 [14]; [16]): 14.6 µM | Comments on efficacy (OR2T4 [15]): No induction wild-type | Fold-improvement potency (OR2T4 [15]): >>2 | Fold-improvement threshold (OR2T4 [15]): >>100
